Reference: article PMC8490515, “Neuromedin B receptor stimulation of Cav3.2 T-type Ca^2+ channels in primary sensory neurons mediates peripheral pain hypersensitivity” (Theranostics, 2021)

What was measured:
PKA = PKA activity assay in TG cells (Pep Tag); format: cell-based, mouse; conditions: 100 nM Nmb, 30 min; triplicate
Description: PKA enzymatic activity in cell lysates was measured using the Pep Tag assay for nonradioactive detection of PKA (Promega, Madison, WI, USA) as described in our previous studies. Briefly, TG cells were cultured in 12-well plates and preincubated with BIM23042 (0.5 μM) or compound C (10 μM) followed by exposure to 100 nM Nmb for 30 min. TG cells were washed with ice-cold phosphate-buffered saline and placed on ice. PKA was extracted from the cell lysates with cold PKA extraction buffer (25 mM Tris-HCl, pH 7.4, 0.5 mM EDTA, 0.5 mM EGTA, 10 mM β-mercaptoethanol, 1 μg/mL leupeptin and 1 μg/mL aprotinin). The assay was conducted according to the manufacturer's instructions.

[1] = test system: mechanical hypersensitivity in mice; assay: von Frey test after intra-TG injection of Nmb; format: in vivo, mouse
Description: Mice were housed on a 12 h light/dark cycle, maintained in a humidity- and temperature-controlled room with water available ad libitum and were acclimated to the experimenter for 2 d before the first behavioural observations. Experimenters were blinded to the treatment or genotypes of the mice. As described previously, [31], an Orofacial Stimulation Test (Ugo Basile, Italy) was used for the measurement of hypersensitivity to the mechanical stimulation of the trigeminal area. Briefly, the mice initially underwent one week of adaptation trainings after a 12 h fasting food period. Each mouse was then placed in a cage in which there was an Orofacial Stimulation Test system. After the mouse was given 10 min to familiarize itself with its environment, the drinking window was opened and the testing mouse was subsequently timed for 10 min to allow drinking the milk. The contact number and total duration of time the mouse spent acquiring the reward were analyzed with the ORO software.
For experiments that several time points are needed to be checked in 24 h, von Frey test was used, as orofacial stimulation test can be checked only once a day, [32]. For the von Frey test, the mice were placed in metal mesh boxes and allowed 30 min for habituation before examination. Mechanical hypersensitivity was assessed as described in previous studies, [33]. In brief, the threshold was assessed with a set of von Frey hairs (0.02-2.56 g, Stoelting) applied to the whisker pad in an ascending series of trials, with three separate von Frey stimulations applied per series. The threshold was determined when mice moved their heads away briskly and strongly from at least one of the three stimuli. Dixon's up-down method was used to determine the 50% probability of escape threshold. For thermal test, a heat stimulus was applied to the maxillary whisker pad skin by radiant heat (IITC Life Science). Heat sensitivity was expressed as head-withdrawal latency (HWL). The radiant heat intensity was adjusted so that basal HWL is between 10-15 s, with a cut-off of 18 s to prevent tissue damage. Chronic inflammatory pain was induced by subcutaneous injection of 20 μL of complete Freund's adjuvant (CFA) into the left side of the buccal pad. The drugs (Nmb, BIM23042, Z941, or TTA-P2) were applied through a percutaneous approach by injecting the TG with a 30 G needle inserted through the infraorbital foramen, infraorbital canal and foramen rotundum. The tip of the needle terminated at the medial part of the TG, and a volume of 5 μL reagent was slowly delivered, [34]. Mice received intra-TG injection of 5'-cholesteryl-modified and 6-FAM-modified Cav3.2 siRNA (Cav3.2-siRNA, 5 μg) or a scrambled negative control siRNA (NC-siRNA) (RiboBio, Guangzhou) 2 d after the CFA injection. siRNA was mixed with polyethyleneimine (PEI, Fermentas Inc.) for 10 min before being delivered. PEI was used as a delivery vehicle to prevent degradation and enhance cell membrane penetration of siRNAs, [36].

Neuromedin B [Nmb]
PKA activity (PKA): increase in PKA activity
acute mechanical hypersensitivity ([1]; intra-TG 0.1 nmol): no such effects
acute mechanical hypersensitivity ([1]; intra-TG 1 nmol or 5 nmol, n = 6 - 8 mice per group): significantly induced profound hypersensitivity to acute mechanical pain
mechanical hypersensitivity, 5 nmol vs 1 nmol ([1]; intra-TG 5 nmol): stronger effect than that of 1 nmol
onset of mechanical hypersensitivity ([1]; intra-TG 5 nmol): 1 h
recovery from mechanical hypersensitivity ([1]; intra-TG 5 nmol): 6 h
time at which mechanical hypersensitivity was maintained ([1]; intra-TG 5 nmol): 3 h
